Data as given in ChEMBL document CHEMBL1201862, “PubChem BioAssay data set” (2004).
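Following 48 hours of exposure in 96-well plates, responses at five concentrations were used to interpolate endpoints linearly. At the GI50, growth is halved.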 Calls of active or inactive are those of the source. No stated cut-off is given here; in the data, active = GI50 up to about 1.1 µM and inactive = higher.

How the values were obtained:
Assay in all cases: DTP human tumour cell line panel, 48 h
786-0 = system: 786-0
A549 = system: A549
ACHN = system: ACHN
BT-549 = system: BT-549
CAKI-1 = system: CAKI-1
COLO 205 = system: COLO 205
DU-145 = system: DU-145
EKVX = system: EKVX
HCC 2998 = system: HCC 2998
HCT-116 = system: HCT-116
HCT-15 = system: HCT-15
HL-60 = system: HL-60
HOP-62 = system: HOP-62
HOP-92 = system: HOP-92
HT-29 = system: HT-29
K562 = system: K562
KM12 = system: KM12
LOX IMVI = system: LOX IMVI
M14 = system: M14
MCF7 = system: MCF7
MDA-MB-231 = system: MDA-MB-231
MDA-MB-435 = system: MDA-MB-435
MDA-N = system: MDA-N
MOLT-4 = system: MOLT-4
Malme-3M = system: Malme-3M
NCI-H23 = system: NCI-H23
NCI-H460 = system: NCI-H460
NCI/ADR-RES = system: NCI/ADR-RES
OVCAR-3 = system: OVCAR-3
OVCAR-4 = system: OVCAR-4
OVCAR-5 = system: OVCAR-5
OVCAR-8 = system: OVCAR-8
RPMI-8226 = system: RPMI-8226
SF-295 = system: SF-295
SK-MEL-28 = system: SK-MEL-28
SK-MEL-2 = system: SK-MEL-2
SK-MEL-5 = system: SK-MEL-5
SN12C = system: SN12C
SNB-19 = system: SNB-19
SR = system: SR
TK-10 = system: TK-10
U-251 = system: U-251
UACC-257 = system: UACC-257
UO-31 = system: UO-31

With `O=C(c1cccc2ccccc12)C1(Br)S(=O)(=O)OCCOS1(=O)=O` the GI50 (786-0) was > 100 µM (inactive), the GI50 (A549) was > 100 µM (inactive) and the GI50 (ACHN) was > 100 µM (inactive). For the same compound, the GI50 (BT-549) was > 100 µM (inactive), the GI50 (CAKI-1) was > 100 µM (inactive) and the GI50 (COLO 205) was > 100 µM (inactive). For the same compound, the GI50 (DU-145) was > 100 µM (inactive), the GI50 (EKVX) was > 100 µM (inactive) and the GI50 (HCC 2998) was > 100 µM (inactive). For the same compound, the GI50 (HCT-116) was > 100 µM (inactive), the GI50 (HCT-15) was greater than 100 µM and the GI50 (HL-60) was > 100 µM (inactive). The GI50 (HOP-62) was > 100 µM (inactive), the GI50 (HOP-92) was > 10 µM (inactive) and the GI50 (HT-29) was > 100 µM (inactive). For the same compound, the GI50 (K562) was > 10 µM (inactive), the GI50 (KM12) was > 100 µM (inactive) and the GI50 (LOX IMVI) was > 100 µM (inactive). The GI50 (M14) was > 100 µM (inactive), the GI50 (MCF7) was > 100 µM (inactive) and the GI50 (MDA-MB-231) was > 100 µM (inactive). For the same compound, the GI50 (MDA-MB-435) was > 100 µM (inactive), the GI50 (MDA-N) was > 100 µM (inactive) and the GI50 (MOLT-4) was > 100 µM (inactive). The GI50 (Malme-3M) was > 100 µM (inactive), the GI50 (NCI-H23) was > 100 µM (inactive) and the GI50 (NCI-H460) was > 100 µM (inactive). For the same compound, the GI50 (NCI/ADR-RES) was > 100 µM (inactive), the GI50 (OVCAR-3) was > 100 µM (inactive) and the GI50 (OVCAR-4) was > 100 µM (inactive). The GI50 (OVCAR-5) was > 100 µM (inactive), the GI50 (OVCAR-8) was > 100 µM (inactive) and the GI50 (RPMI-8226) was > 100 µM (inactive). For the same compound, the GI50 (SF-295) was > 100 µM (inactive), the GI50 (SK-MEL-28) was > 100 µM (inactive) and the GI50 (SK-MEL-2) was > 100 µM (inactive). For the same compound, the GI50 (SK-MEL-5) was > 100 µM (inactive), the GI50 (SN12C) was > 100 µM (inactive) and the GI50 (SNB-19) was > 100 µM (inactive). The GI50 (SR) was > 100 µM (inactive), the GI50 (TK-10) was > 100 µM (inactive) and the GI50 (U-251) was > 100 µM (inactive). For the same compound, the GI50 (UACC-257) was > 100 µM (inactive) and the GI50 (UO-31) was > 100 µM (inactive).
